Source: patent US20120015907A1, “Furopyridine compounds and uses thereof” (NOVARTIS AG, priority 2010, published 2012)
Values joined by “and” are separate entries in the source; they are usually repeats but may differ in a detail not shown here. Identical values can stand only once.

molecular target: T1, HCV polymerase (Hepatitis C virus genotype 1b, UniProt Q9WMX2); assay: biochemical; details: NS5B polymerase IC50 μM, polymerase assay of Biological Example 1
T1 construct: (His)6 (C)

**Q.** For `CCOP(C)(=O)CCCCN(c1nc2oc(-c3ccc(C)cc3)c(C(=O)NC)c2cc1C1CC1)S(C)(=O)=O` (stereo not drawn) [Example 23.99993, ethyl 4-(N-(5-cyclopropyl-3-(methylcarbamoyl)-2-p-tolylfuro[2,3-b]pyridin-6-yl)methylsulfonamido)butyl (methyl)phosphinate], which IC50 is on record?
**A.** 0.011 µM

**Q.** `CCOP(C)(=O)CCCCCN(c1nc2oc(-c3ccc(C)cc3)c(C(=O)NC)c2cc1C1CC1)S(C)(=O)=O` (stereo not drawn) [Example 23.99995, ethyl 5-(N-(5-cyclopropyl-3-(methylcarbamoyl)-2-p-tolylfuro[2,3-b]pyridin-6-yl)methylsulfonamido)pentyl (methyl)phosphinate] was tested. Which IC50 did it give?
**A.** 0.009 µM

**Q.** For `CCOP(C)(=O)CCCCCN(c1nc2oc(-c3ccc(CC)cc3)c(C(=O)NC)c2cc1I)S(C)(=O)=O` (stereo not drawn) [Example 23.9992, ethyl 5-(N-(2-(4-ethylphenyl)-5-iodo-3-(methylcarbamoyl)furo[2,3-b]pyridin-6-yl)methylsulfonamido)pentyl (methyl)phosphinate], which IC50 is on record?
**A.** 0.02 µM

**Q.** `CCOP(C)(=O)CCCCN(c1nc2oc(-c3ccc(CC)cc3)c(C(=O)NC)c2cc1I)S(C)(=O)=O` (stereo not drawn) [Example 23.9991, ethyl 4-(N-(2-(4-ethylphenyl)-5-iodo-3-(methylcarbamoyl)furo[2,3-b]pyridin-6-yl)methylsulfonamido) butyl(methyl)phosphinate] was tested. Which IC50 did it give?
**A.** 0.026 µM

same assay, conditions: polymerase assay of Biological Example 1; read-out: NS5B polymerase IC50

**Q.** For `CCc1ccc(-c2oc3nc(N(CCCC(C)(OC)C(=O)O)S(C)(=O)=O)c(C4CC4)cc3c2C(=O)NC)cc1` (stereo not drawn) [Example 29.9991, 5-(N-(5-cyclopropyl-2-(4-ethylphenyl)-3-(methylcarbamoyl)furo[2,3-b]pyridin-6-yl)methylsulfonamido)-2-methoxy-2-methylpentanoic acid], which IC50 is on record?
**A.** 0.003 µM

**Q.** For `CCCc1cc2c(C(=O)NC)c(-c3ccc(F)cc3)oc2nc1N(C)S(C)(=O)=O` [Example 4.96, 2-(4-fluorophenyl)-N-methyl-6-(N-methylmethylsulfonamido)-5-propylfuro[2,3-b]pyridine-3-carboxamide], which IC50 is on record?
**A.** 0.078 µM

**Q.** `CNC(=O)c1c(-c2ccc(C)cc2)oc2nc(N(CCC[C@H](COC)C(=O)O)S(C)(=O)=O)c(C3CC3)cc12` [Example 47.7, (R)-5-(N-(5-Cyclopropyl-3-(methylcarbamoyl)-2-p-tolylfuro[2,3-b]pyridin-6-yl)methylsulfonamido)-2-(methoxymethyl)pentanoic acid] was tested. Which IC50 did it give?
**A.** 0.002 µM

**Q.** `CN(c1nc2oc(-c3ccc(F)cc3)c(C(N)=O)c2cc1C1CC1)S(C)(=O)=O` [Example 2.6] was tested. Which IC50 did it give?
**A.** 0.297 µM

**Q.** With `C=C(CCCN(c1nc2oc(-c3ccc(C)cc3)c(C(=O)NC)c2cc1C1CC1)S(C)(=O)=O)C(=O)OC` [Example 29.9997, methyl 5-(N-(5-cyclopropyl-3-(methylcarbamoyl)-2-p-tolylfuro[2,3-b]pyridin-6-yl)methylsulfonamido)-2-methylenepentanoate] as the molecule, how does the IC50 read?
**A.** 0.015 µM

**Q.** Which IC50 does the source give for `CNC(=O)c1c(-c2ccc(F)cc2)oc2nc(N(CCCn3ccnc3)S(C)(=O)=O)c(I)cc12` [Example 23.5, 6-(N-(3-(1H-imidazol-1-yl)propyl)methylsulfonamido)-2-(4-fluorophenyl)-5-iodo-N-methylfuro[2,3-b]pyridine-3-carboxamide] here?
**A.** 0.151 µM and 0.035 µM

**Q.** How did the IC50 turn out when `CNC(=O)c1c(-c2ccc(C)cc2)oc2nc(N(CCc3ccccc3C(=O)O)S(C)(=O)=O)c(C3CC3)cc12` [Example 45, 2-(2-(N-(5-cyclopropyl-3-(methylcarbamoyl)-2-(p-tolyl)furo[2,3-b]pyridin-6-yl)methylsulfonamido)ethyl)benzoic acid] was run?
**A.** 0.008 µM

**Q.** `CNC(=O)c1c(-c2ccc(C)cc2)oc2nc(N(CCOCCC(CCOC)C(=O)O)S(C)(=O)=O)c(C3CC3)cc12` (stereo not drawn) [Example 23.999999, 4-{2-[(5-Cyclopropyl-3-methylcarbamoyl-2-p-tolyl-furo[2,3-b]pyridin-6-yl)-methanesulfonyl-amino]-ethoxy}-2-(2-methoxy-ethyl)-butyric acid] was tested. Which IC50 did it give?
**A.** 0.02 µM

**Q.** How did the IC50 turn out when `CNC(=O)c1c(-c2ccc(C)cc2)oc2nc(N(CCCNCCCC(=O)O)S(C)(=O)=O)c(C3CC3)cc12` [Example 23.999996, 4-(3-(N-(5-cyclopropyl-3-(methylcarbamoyl)-2-p-tolylfuro[2,3-b]pyridin-6-yl)methylsulfonamido)propylamino)butanoic acid] was run?
**A.** 0.016 µM

**Q.** For `CNC(=O)c1c(-c2ccc(C)cc2)oc2nc(N(CCCC(C#N)CC(=O)O)S(C)(=O)=O)c(C3CC3)cc12` (stereo not drawn) [Example 29.999995, 3-cyano-6-(N-(5-cyclopropyl-3-(methylcarbamoyl)-2-p-tolylfuro[2,3-b]pyridin-6-yl)methylsulfonamido) hexanoic acid], which IC50 is on record?
**A.** 0.003 µM

**Q.** For `CCc1cc2c(C(=O)NC)c(-c3ccc(F)cc3)oc2nc1N(CCCCC(C)O)S(C)(=O)=O` (stereo not drawn) [Example 22.93, 5-ethyl-2-(4-fluorophenyl)-6-(N-(5-hydroxyhexyl)methylsulfonamido)-N-methylfuro[2,3-b]pyridine-3-carboxamide], which IC50 is on record?
**A.** 0.047 µM

**Q.** For `CNC(=O)c1c(-c2ccc(F)cc2)oc2nc(N(C)S(C)(=O)=O)c(/C=C/C#N)cc12` [Example 13, (E)-5-(2-cyanovinyl)-2-(4-fluorophenyl)-N-methyl-6-(N-methylmethylsulfonamido)furo[2,3-b]pyridine-3-carboxamide], which IC50 is on record?
**A.** 0.273 µM

**Q.** `CNC(=O)c1c(-c2ccc(F)cc2)oc2nc(N(C)S(C)(=O)=O)c(CCCN)cc12` [Example 15, 5-(3-aminopropyl)-2-(4-fluorophenyl)-N-methyl-6-(N-methylmethylsulfonamido)furo[2,3-b]pyridine-3-carboxamide] was tested. Which IC50 did it give?
**A.** 0.532 µM

**Q.** `CCc1cc2c(C(=O)NC)c(-c3ccc(F)cc3)oc2nc1N(CCCC(C)(C)O)S(C)(=O)=O` [Example 22.94, 5-ethyl-2-(4-fluorophenyl)-6-(N-(4-hydroxy-4-methylpentyl)methylsulfonamido)-N-methylfuro[2,3-b]pyridine-3-carboxamide] was tested. Which IC50 did it give?
**A.** 0.031 µM

**Q.** Which IC50 does the source give for `CNC(=O)c1c(-c2ccc(C)cc2)oc2nc(N(CCC[C@@H](C)C(=O)O)S(C)(=O)=O)c(C3CC3)cc12` [Example 47.3, (R)-5-(N-(5-cyclopropyl-3-(methylcarbamoyl)-2-p-tolylfuro[2,3-b]pyridin-6-yl)methylsulfonamido)-2-methylpentanoic acid] here?
**A.** 0.003 µM

**Q.** For `CNC(=O)c1c(-c2ccc(C)cc2)oc2nc(N(CCCCBr)S(C)(=O)=O)c(C3CC3)cc12` [Example 29.997, 6-(N-(4-bromobutyl)methylsulfonamido)-5-cyclopropyl-N-methyl-2-p-tolylfuro[2,3-b]pyridine-3-carboxamide], which IC50 is on record?
**A.** 0.002 µM

**Q.** For `CNC(=O)c1c(-c2ccc(F)cc2)oc2nc(N(CCCOCCOC)S(C)(=O)=O)c(I)cc12` [Example 18.992, 2-(4-fluorophenyl)-5-iodo-6-(N-(3-(2-methoxyethoxy)propyl)methylsulfonamido)-N-methylfuro[2,3-b]pyridine-3-carboxamide], which IC50 is on record?
**A.** 0.237 µM

**Q.** `CNC(=O)c1c(-c2ccc(C)cc2)oc2nc(N(CCCC(CC#N)C(=O)O)S(C)(=O)=O)c(C3CC3)cc12` (stereo not drawn) [Example 29.9999, 2-(cyanomethyl)-5-(N-(5-cyclopropyl-3-(methylcarbamoyl)-2-p-tolylfuro[2,3-b]pyridin-6-yl)methylsulfonamido) pentanoic acid] was tested. Which IC50 did it give?
**A.** 0.002 µM

**Q.** How did the IC50 turn out when `CCNC(=O)c1c(-c2ccc(F)cc2)oc2nc(N(C)S(C)(=O)=O)c(C3CC3)cc12` [Example 2.7, 5-cyclopropyl-N-ethyl-2-(4-fluorophenyl)-6-(N-methylmethylsulfonamido)furo[2,3-b]pyridine-3-carboxamide] was run?
**A.** 0.044 µM

**Q.** `C=C[C@@H](CN(c1nc2oc(-c3ccc(F)cc3)c(C(=O)NC)c2cc1C(=C)C)S(C)(=O)=O)OCc1ccccc1` [Example 35, (S)-6-(N-(2-(benzyloxy)but-3-enyl)methylsulfonamido)-2-(4-fluorophenyl)-N-methyl-5-(prop-1-en-2-yl)furo[2,3-b]pyridine-3-carboxamide] was tested. Which IC50 did it give?
**A.** 6.03 µM

**Q.** For `CCc1ccc(-c2oc3nc(N(CCOCC(C)(C)C(=O)O)S(C)(=O)=O)c(C4CC4)cc3c2C(=O)NC)cc1` [Example 41.1, 3-(2-(N-(5-Cyclopropyl-2-(4-ethylphenyl)-3-(methylcarbamoyl)furo[2,3-b]pyridin-6-yl)methylsulfonamido)ethoxy)-2,2-dimethylpropanoic acid], which IC50 is on record?
**A.** 0.002 µM

**Q.** For `CCc1ccc(-c2oc3nc(N(CCCC(C)(C)C(=O)O)S(C)(=O)=O)c(C4CC4)cc3c2C(=O)NC)cc1` [Example 29, 5-{[5-Cyclopropyl-2-(4-ethyl-phenyl)-3-methylcarbamoyl-furo[2,3-b]pyridin-6-yl]-methanesulfonyl-amino}-2,2-dimethyl-pentanoic acid], which IC50 is on record?
**A.** 0.001 µM

**Q.** For `CCc1cc2c(C(=O)NC)c(-c3ccc(F)cc3)oc2nc1N(CCCS(=O)(=O)C1CC1)S(C)(=O)=O` [Example 23.991, 6-(N-(3-(cyclopropylsulfonyl)propyl)methylsulfonamido)-5-ethyl-2-(4-fluorophenyl)-N-methylfuro[2,3-b]pyridine-3-carboxamide], which IC50 is on record?
**A.** 0.061 µM

**Q.** For `CNC(=O)c1c(-c2ccc(C)cc2)oc2nc(N(CCCCC3(C(=O)O)CCOCC3)S(C)(=O)=O)c(C3CC3)cc12` [Example 29.95, 4-(4-(N-(5-cyclopropyl-3-(methylcarbamoyl)-2-p-tolylfuro[2,3-b]pyridin-6-yl)methylsulfonamido)butyl) tetrahydro-2H-pyran-4-carboxylic acid], which IC50 is on record?
**A.** 0.003 µM

**Q.** For `CNC(=O)c1c(-c2ccc(C)cc2)oc2nc(N(CCCC3(C(=O)O)CCN(C(=O)OC(C)(C)C)CC3)S(C)(=O)=O)c(C3CC3)cc12` [Example 29.9996, 1-(tert-butoxycarbonyl)-4-(3-(N-(5-cyclopropyl-3-(methylcarbamoyl)-2-p-tolylfuro[2,3-b]pyridin-6-yl)methylsulfonamido)propyl) piperidine-4-carboxylic acid], which IC50 is on record?
**A.** 0.117 µM

**Q.** How did the IC50 turn out when `CNC(=O)c1c(-c2ccc(C)cc2)oc2nc(N(CCOCCCC(=O)O)S(C)(=O)=O)c(C3CC3)cc12` [Example 23.999998, 4-(2-(N-(5-cyclopropyl-3-(methylcarbamoyl)-2-p-tolylfuro[2,3-b]pyridin-6-yl)methylsulfonamido)ethoxy)butanoic acid] was run?
**A.** 0.005 µM
